Source: ChEMBL document CHEMBL1122541, “Peptide sweeteners. 7. Taste relationships of trifluoroacetyl-L-aspartylanilides” (J Med Chem, 1984)
Values belong to the molecule of their own block, whether it stands above or below them.

Experiments:
[1] = Value represents the number of times the compound was as sweet as sucrose; +/- - - = Sweet/ very bitter
[2] = Compound taste was tested with reference of sucrose sweetness; + / - = Sweet/ bitter
[3] = Compound taste was tested with reference of sucrose sweetness; +/ - - = Sweet/ very bitter
[4] = Value represents the number of times the compound was as sweet as sucrose
[5] = Value represents the number of times the compound was as sweet as sucrose.
[6] = Compound taste was tested with reference of sucrose sweetness; + / - = Sweet/bitter
[7] = Compound taste was tested with reference of sucrose sweetness; +/- = Sweet/bitter
[8] = Compound taste was tested with reference of sucrose sweetness; - = Bitter
[9] = compound taste was tested with reference of sucrose sweetness; - = bitter
[10] = Compound taste was tested with reference of sucrose sweetness; + / - - = Sweet/very bitter
[11] = compound taste was tested with reference of sucrose sweetness; + / - - = sweet / bitter

Compound: Cc1cccc(NC(=O)C(CC(=O)O)NC(=O)C(F)(F)F)c1 (centres undefined)
- Taste [2]: + / -

Compound: O=C(O)CC(NC(=O)C(F)(F)F)C(=O)Nc1ccc([N+](=O)[O-])c([N+](=O)[O-])c1 (centres undefined)
- Taste [3]: + / - -

Compound: O=C(O)CC(NC(=O)C(F)(F)F)C(=O)Nc1ccc(Cl)cc1 (centres undefined)
- Taste [4]: 120

Compound: N#Cc1ccc(NC(=O)C(CC(=O)O)NC(=O)C(F)(F)F)cc1 (centres undefined)
- Taste [4]: 3000

Compound: O=C(O)CC(NC(=O)C(F)(F)F)C(=O)Nc1ccc([N+](=O)[O-])cc1 (centres undefined)
- Taste [5]: 1500

Compound: O=C(O)CC(NC(=O)C(F)(F)F)C(=O)Nc1ccccc1Cl (centres undefined)
- Taste [8]: Bitter

Compound: O=C(O)CC(NC(=O)C(F)(F)F)C(=O)Nc1ccccc1[N+](=O)[O-] (centres undefined)
- Taste [9]: Bitter

Compound: Cc1cc(NC(=O)C(CC(=O)O)NC(=O)C(F)(F)F)ccc1[N+](=O)[O-] (centres undefined)
- Taste [10]: + / - -

Compound: N#Cc1ccccc1NC(=O)C(CC(=O)O)NC(=O)C(F)(F)F (centres undefined)
- Taste [8]: Bitter

The next lines start with the values.

- Taste [1]: +/- - -
Compound: O=C(O)CC(NC(=O)C(F)(F)F)C(=O)Nc1cccc([N+](=O)[O-])c1 (centres undefined)

- Taste [4]: 12
Compound: O=C(O)CC(NC(=O)C(F)(F)F)C(=O)Nc1ccccc1 (centres undefined)

- Taste [6]: + / -
Compound: O=C(O)CC(NC(=O)C(F)(F)F)C(=O)Nc1cccc(Cl)c1 (centres undefined)

- Taste [7]: +/-
Compound: N#Cc1cccc(NC(=O)C(CC(=O)O)NC(=O)C(F)(F)F)c1 (centres undefined)

- Taste [11]: + / - -
Compound: Cc1cc([N+](=O)[O-])ccc1NC(=O)C(CC(=O)O)NC(=O)C(F)(F)F (centres undefined)
